The values below come from PubChem BioAssay AID330 (DTP/NCI, 2004).

Several values for one entry are separate records, joined by “and”; a condition that tells them apart may be missing. Equal entries are not always repeated. Inconclusive results and toxic doses are left out.

The experiment has as its system P388 leukemia ip, CD2F1 mice, survival T/C. Put plainly: NCI In Vivo Anticancer Drug Screen. Data for tumor model P388 Leukemia (intraperitoneal) in CD2F1 (CDF1) mice. To be noted: endpoint: median survival time, higher = longer survival. The gist of the method:
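Mice carrying the transplanted tumor received test compound or vehicle. Survival was recorded in each group, and the value is the treated-group measurement divided by that of the vehicle-treated control group.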

Setting [1] is: dose: 25.0 mg/kg/injection, schedule: Q01DX009 (ip), vehicle: saline.
Setting [2] is: dose: 60.0 mg/kg/injection, schedule: Q01DX005 (ip), vehicle: saline with Tween-80.
Where [3] appears, read: dose: 240.0 mg/kg/injection, schedule: Q01DX005 (ip), vehicle: saline with Tween-80.
[4] abbreviates: dose: 50.0 mg/kg/injection, schedule: Q01DX009 (ip), vehicle: saline with Tween-80.
[5] abbreviates: dose: 100.0 mg/kg/injection, schedule: Q01DX009 (ip), vehicle: saline with Tween-80.
[6] abbreviates: dose: 200.0 mg/kg/injection, schedule: Q01DX009 (ip), vehicle: saline with Tween-80.
[7] abbreviates: dose: 100.0 mg/kg/injection, schedule: Q01DX001 (ip), vehicle: Klucel (hydroxypropylcellulose) (HPC).
Where [8] appears, read: dose: 50.0 mg/kg/injection, schedule: Q01DX009 (ip), vehicle: saline.
[9] abbreviates: dose: 100.0 mg/kg/injection, schedule: Q01DX009 (ip), vehicle: saline.

As to `Cn1nc[n+](C)n1`, the T/C is 91 % of control (dose: 12.5 mg/kg/injection, schedule: Q01DX009 (ip), vehicle: saline) and 91 % of control under setting [1].
Consider `CC1(C)CCCC(C)(C(=O)O)O1` (stereo not given), for which the T/C is, setting by setting: under setting [2], 104 % of control; (dose: 120.0 mg/kg/injection, schedule: Q01DX005 (ip), vehicle: saline with Tween-80) 101 % of control; under setting [3], 104 % of control.
For `COc1cccc2c1C(=O)c1c(O)c3c(c(O)c1C2=O)C[C@@](O)(C(O)O)C[C@@H]3OC1CC(N)C(O)C(C)O1` (stereo not given in full), the T/C (dose: 2.0 mg/kg/injection, schedule: Q01DX009 (ip), vehicle: water) was 168 % of control; the T/C (dose: 4.0 mg/kg/injection, schedule: Q01DX009 (ip), vehicle: water) is 154 % of control; the T/C (dose: 100.0 mg/kg/injection, schedule: Q04DX003 (ip), vehicle: water) was 109 % of control and 121 % of control.
Turning to `Cc1cc(C2c3ccccc3-c3ccccc32)cc(C)c1O`, the T/C (dose: 1.87 mg/kg/injection, schedule: Q01DX005 (ip), vehicle: saline with Tween-80) was 90 % of control; the T/C (dose: 3.75 mg/kg/injection, schedule: Q01DX005 (ip), vehicle: saline with Tween-80) is 97 % of control; the T/C (dose: 7.5 mg/kg/injection, schedule: Q01DX005 (ip), vehicle: saline with Tween-80) is 91 % of control; the T/C (dose: 15.0 mg/kg/injection, schedule: Q01DX005 (ip), vehicle: saline with Tween-80) is 91 % of control; the T/C under setting [2] is 90 % of control; the T/C under setting [3] is 92 % of control.
Take `COc1cc(C(O)C2C(=O)OCC2C2(c3ccc4c(c3)OCO4)SCCCS2)cc(OC)c1OC` (stereo not given): the T/C was 107 % of control under setting [4]; 109 % of control (dose: 100.0 mg/kg/injection, schedule: Q01DX001 (ip), vehicle: saline with Tween-80); 115 % of control under setting [5]; 104 % of control (dose: 200.0 mg/kg/injection, schedule: Q01DX001 (ip), vehicle: saline with Tween-80); 108 % of control under setting [6].
Turning to `CCCCC(CC)C1NC(C(=O)O)CS1` (stereo not given), the T/C by setting is: (dose: 50.0 mg/kg/injection, schedule: Q01DX009 (ip), vehicle: suspension in saline) 96 % of control; (dose: 100.0 mg/kg/injection, schedule: Q01DX009 (ip), vehicle: suspension in saline) 87 % of control; (dose: 200.0 mg/kg/injection, schedule: Q01DX009 (ip), vehicle: suspension in saline) 96 % of control.
Turning to `CCN(CC)CCNc1cc2c(c3c(=O)c4ccccc4sc13)CCCC2`, the T/C runs as follows: (dose: 7.8 mg/kg/injection, schedule: Q01DX005 (ip), vehicle: other) 101 % of control; (dose: 15.6 mg/kg/injection, schedule: Q01DX005 (ip), vehicle: other) 113 % of control; (dose: 31.3 mg/kg/injection, schedule: Q01DX005 (ip), vehicle: other) 104 % of control; (dose: 62.5 mg/kg/injection, schedule: Q01DX005 (ip), vehicle: other) 113 % of control; (dose: 125.0 mg/kg/injection, schedule: Q01DX005 (ip), vehicle: other) 101 % of control.
`Nc1ccc(C(=O)Oc2ccc(OC(=O)c3ccc(N)cc3)cc2)cc1`: the T/C (dose: 25.0 mg/kg/injection, schedule: Q01DX001 (ip), vehicle: Klucel (hydroxypropylcellulose) (HPC)) was 99 % of control; the T/C (dose: 50.0 mg/kg/injection, schedule: Q01DX001 (ip), vehicle: Klucel (hydroxypropylcellulose) (HPC)) is 96 % of control; the T/C under setting [7] is 101 % of control.
Consider `Nc1cc2cccc[n+]2c2ccccc12`, for which the T/C was 110 % of control (dose: 3.75 mg/kg/injection, schedule: Q01DX005 (ip), vehicle: saline); 106 % of control (dose: 7.5 mg/kg/injection, schedule: Q01DX005 (ip), vehicle: saline); 120 % of control (dose: 15.0 mg/kg/injection, schedule: Q01DX005 (ip), vehicle: saline).
`CC(C)(C)c1cc2c3c(c1)Oc1cc(C(C)(C)C)cc4c1C3(O)c1c(cc(C(C)(C)C)cc1O4)O2`: the T/C is 107 % of control (dose: 1.56 mg/kg/injection, schedule: Q01DX005 (ip), vehicle: Klucel (hydroxypropylcellulose) (HPC)); 104 % of control and 108 % of control (dose: 3.12 mg/kg/injection, schedule: Q01DX005 (ip), vehicle: Klucel (hydroxypropylcellulose) (HPC)); 101 % of control and 110 % of control and 118 % of control (dose: 6.25 mg/kg/injection, schedule: Q01DX005 (ip), vehicle: Klucel (hydroxypropylcellulose) (HPC)); 107 % of control and 111 % of control and 120 % of control (dose: 12.5 mg/kg/injection, schedule: Q01DX005 (ip), vehicle: Klucel (hydroxypropylcellulose) (HPC)); 102 % of control (dose: 25.0 mg/kg/injection, schedule: Q01DX005 (ip), vehicle: Klucel (hydroxypropylcellulose) (HPC)).
Turning to `CC1=NC2=NC(CCCC(=O)N3CCCCC3)=NC3=CC=CC(=N1)N32`, the T/C by setting is: under setting [1], 104 % of control; under setting [8], 101 % of control; under setting [9], 103 % of control.
As to `CCC1(C(=O)Sc2ccccc2)OC1c1ccccc1` (stereo not given), the T/C reads like this: under setting [7], 89 % of control; (dose: 200.0 mg/kg/injection, schedule: Q01DX001 (ip), vehicle: Klucel (hydroxypropylcellulose) (HPC)) 90 % of control; (dose: 400.0 mg/kg/injection, schedule: Q01DX001 (ip), vehicle: Klucel (hydroxypropylcellulose) (HPC)) 90 % of control.
Regarding `CCCCCCN1CCS(=O)(=O)CC1`, the T/C was 91 % of control (dose: 50.0 mg/kg/injection, schedule: Q01DX009 (ip), vehicle: Klucel (hydroxypropylcellulose) (HPC)); 94 % of control (dose: 100.0 mg/kg/injection, schedule: Q01DX009 (ip), vehicle: Klucel (hydroxypropylcellulose) (HPC)); 90 % of control (dose: 200.0 mg/kg/injection, schedule: Q01DX009 (ip), vehicle: Klucel (hydroxypropylcellulose) (HPC)).
Regarding `CCC12C[N+]3([O-])CCc4c([nH]c5ccccc45)C(C(=O)OC)(c4cc5c(cc4OC)N(C)C4C(O)(C(=O)OC)C(OC(C)=O)C6(CC)C=CCN7CCC54C76)CC(C3)C1O2` (stereo not given), the T/C is, setting by setting: (dose: 2.0 mg/kg/injection, schedule: Q01DX001 (ip), vehicle: water) 102 % of control; (dose: 8.0 mg/kg/injection, schedule: Q01DX001 (ip), vehicle: distilled water + Tween-80) 161 % of control; (dose: 8.0 mg/kg/injection, schedule: Q01DX001 (ip), vehicle: water) 122 % of control; (dose: 16.0 mg/kg/injection, schedule: Q01DX001 (ip), vehicle: distilled water + Tween-80) 193 % of control; (dose: 32.0 mg/kg/injection, schedule: Q01DX001 (ip), vehicle: water) 171 % of control; (dose: 64.0 mg/kg/injection, schedule: Q01DX001 (ip), vehicle: water) 190 % of control.
As to `COc1cc(C(=O)CCCC(=O)O)cc(OC)c1OC`, the T/C reads like this: under setting [4], 96 % of control; under setting [5], 92 % of control; under setting [6], 88 % of control.
`Nc1nc(N)c2cc(CNc3ccc(C(=O)NC(C(=O)O)C(=O)O)cc3)ccc2n1`: the T/C is 168 % of control (dose: 0.05 mg/kg/injection, schedule: Q01DX009 (ip), vehicle: saline sonified); 204 % of control (dose: 0.1 mg/kg/injection, schedule: Q01DX009 (ip), vehicle: saline sonified); 86 % of control (dose: 0.2 mg/kg/injection, schedule: Q01DX009 (ip), vehicle: saline sonified); 159 % of control (dose: 100.0 micrograms/kg/injection, schedule: Q01DX009 (ip), vehicle: saline sonified).
As to `Nc1nc(N)c(N=O)c(N)n1`, the T/C is, setting by setting: (dose: 44.0 mg/kg/injection, schedule: Q01DX009 (ip), vehicle: saline) 104 % of control; (dose: 66.0 mg/kg/injection, schedule: Q01DX009 (ip), vehicle: saline) 104 % of control; under setting [9], 104 % of control; (dose: 150.0 mg/kg/injection, schedule: Q01DX009 (ip), vehicle: saline) 102 % of control.
Take `CC(O)C(N)C(=O)O` (stereo not given): the T/C by setting is: (dose: 50.0 mg/kg/injection, schedule: Q01DX005 (ip), vehicle: saline) 104 % of control; under setting [8], 103 % of control; (dose: 100.0 mg/kg/injection, schedule: Q01DX005 (ip), vehicle: saline) 100 % of control and 108 % of control; under setting [9], 105 % of control; (dose: 200.0 mg/kg/injection, schedule: Q01DX005 (ip), vehicle: saline) 100 % of control and 103 % of control; (dose: 200.0 mg/kg/injection, schedule: Q01DX009 (ip), vehicle: saline) 102 % of control.
